Data taken from article PMC5218480 (PLoS ONE, 2017).

System: MV-4-11 cells
Test: Gene expression microarray analysis (Affymetrix PrimeView) and GSEA
Type: cell-based, human
Set-up: RFU PODN (11730768_x_at) / Fold change /veh PODN (11730768_x_at) / RFU LINC00158 (11744669_a_at) / Fold change /veh LINC00158 (11744669_a_at) / RFU DUSP10 (11751237_a_at) / Fold change /veh DUSP10 (11751237_a_at) / RFU ID3 (11757404_x_at) / Fold change /veh ID3 (11757404_x_at) / RFU PLEKHG5 (11737974_s_at) / Fold change /veh PLEKHG5 (11737974_s_at) / RFU LRRC4B (11730491_at) / Fold change /veh LRRC4B (11730491_at) / RFU GIMAP4 (11747438_a_at) / Fold change /veh GIMAP4 (11747438_a_at) / RFU KRT8 (11758183_x_at) / Fold change /veh KRT8 (11758183_x_at) / RFU CNN1 (11734310_a_at) / Fold change /veh CNN1 (11734310_a_at) / RFU VPS37D (11726825_at) / Fold change /veh VPS37D (11726825_at) / RFU C10orf10 (11716522_x_at) / Fold change /veh C10orf10 (11716522_x_at) / RFU KIR2DL2 /// KIR2DL4 /// KIR2DL5A /// KIR2DL5B /// KIR2DS1 /// KIR2DS2 /// KIR2DS3 /// KIR2DS4 /// KIR3DL3 /// KIR3DL3 /// KIR3DS1 (11738374_at) / Fold change /veh KIR2DL2 /// KIR2DL4 /// KIR2DL5A /// KIR2DL5B /// KIR2DS1 /// KIR2DS2 /// KIR2DS3 /// KIR2DS4 /// KIR3DL3 /// KIR3DL3 /// KIR3DS1 (11738374_at) / RFU C1QL1 (11718748_at) / Fold change /veh C1QL1 (11718748_at) / RFU TMPRSS4 (11747572_a_at) / Fold change /veh TMPRSS4 (11747572_a_at) / RFU HAMP (11756126_x_at) / Fold change /veh HAMP (11756126_x_at) / RFU RNFT2 (11725882_a_at) / Fold change /veh RNFT2 (11725882_a_at) / RFU NR4A2 (11747474_a_at) / Fold change /veh NR4A2 (11747474_a_at) / RFU ABCC12 (11746883_a_at) / Fold change /veh ABCC12 (11746883_a_at) / RFU TMEM136 (11760407_x_at) / Fold change /veh TMEM136 (11760407_x_at) / RFU CLDN22 /// WWC2 (11732394_at) / Fold change /veh CLDN22 /// WWC2 (11732394_at) / RFU HLA-DPB1 (11760878_x_at) / Fold change /veh HLA-DPB1 (11760878_x_at) / RFU SPINT1 (11716480_a_at) / Fold change /veh SPINT1 (11716480_a_at) / RFU GAP43 (11754022_s_at) / Fold change /veh GAP43 (11754022_s_at) / RFU A4GNT (11735810_at) / Fold change /veh A4GNT (11735810_at) / RFU PRB3 (11715151_x_at) / Fold change /veh PRB3 (11715151_x_at) / RFU TUBB4B (11761932_at) / Fold change /veh TUBB4B (11761932_at) / RFU CAPN14 (11732068_a_at) / Fold change /veh CAPN14 (11732068_a_at) / RFU TMCC2 (11721928_a_at) / Fold change /veh TMCC2 (11721928_a_at) / RFU IRGQ (11745062_a_at) / Fold change /veh IRGQ (11745062_a_at) / RFU FAM174B (11720279_a_at) / Fold change /veh FAM174B (11720279_a_at) / RFU TMPRSS4 (11748680_a_at) / Fold change /veh TMPRSS4 (11748680_a_at) / RFU FAM212B (11763350_a_at) / Fold change /veh FAM212B (11763350_a_at) / RFU PLEKHG5 (11743358_a_at) / Fold change /veh PLEKHG5 (11743358_a_at) / RFU ZSCAN30 (11745921_a_at) / Fold change /veh ZSCAN30 (11745921_a_at) / RFU CMKLR1 (11741424_a_at) / Fold change /veh CMKLR1 (11741424_a_at) / RFU LOC101060620 /// MAPK8IP1 (11723275_at) / Fold change /veh LOC101060620 /// MAPK8IP1 (11723275_at) / RFU SPTSSB (11747773_x_at) / Fold change /veh SPTSSB (11747773_x_at) / RFU PRSS12 (11739890_at) / Fold change /veh PRSS12 (11739890_at) / RFU BIN1 (11741810_x_at) / Fold change /veh BIN1 (11741810_x_at) / RFU WNT11 (11732464_a_at) / Fold change /veh WNT11 (11732464_a_at) / RFU C10orf10 (11716521_a_at) / Fold change /veh C10orf10 (11716521_a_at) / RFU C5orf56 (11738089_at) / Fold change /veh C5orf56 (11738089_at) / RFU CYB561 (11721691_x_at) / Fold change /veh CYB561 (11721691_x_at) / RFU ANKRD19P (11752326_a_at) / Fold change /veh ANKRD19P (11752326_a_at) / RFU OR2T12 /// OR2T33 /// OR2T8 (11738714_s_at) / Fold change /veh OR2T12 /// OR2T33 /// OR2T8 (11738714_s_at) / RFU VCAN (11748164_a_at) / Fold change /veh VCAN (11748164_a_at) / RFU JSRP1 (11732532_at) / Fold change /veh JSRP1 (11732532_at) / RFU KRTAP10-11 (11738290_x_at) / Fold change /veh KRTAP10-11 (11738290_x_at) / RFU MYO3A (11730013_a_at) / Fold change /veh MYO3A (11730013_a_at) / RFU EBF3 (11725865_a_at) / Fold change /veh EBF3 (11725865_a_at) / RFU CAMK2N1 (11719241_x_at) / Fold change /veh CAMK2N1 (11719241_x_at) / RFU C5orf56 (11738088_a_at) / Fold change /veh C5orf56 (11738088_a_at) / RFU OLFML3 (11715873_a_at) / Fold change /veh OLFML3 (11715873_a_at) / RFU LOC100653217 /// NTM (11731650_a_at) / Fold change /veh LOC100653217 /// NTM (11731650_a_at) / RFU MAPK11 (11762145_a_at) / Fold change /veh MAPK11 (11762145_a_at) / RFU FIZ1 (11724087_x_at) / Fold change /veh FIZ1 (11724087_x_at) / RFU OASL (11726364_x_at) / Fold change /veh OASL (11726364_x_at) / RFU SOX15 (11748057_x_at) / Fold change /veh SOX15 (11748057_x_at) / RFU CD79A (11719716_a_at) / Fold change /veh CD79A (11719716_a_at) / RFU HIST1H1D (11736915_at) / Fold change /veh HIST1H1D (11736915_at) / RFU CASKIN2 (11723855_a_at) / Fold change /veh CASKIN2 (11723855_a_at) / RFU LOC730098 (11760151_x_at) / Fold change /veh LOC730098 (11760151_x_at) / RFU OR4N2 (11742367_at) / Fold change /veh OR4N2 (11742367_at) / RFU PRRT2 (11749266_a_at) / Fold change /veh PRRT2 (11749266_a_at) / RFU SNX32 (11753110_a_at) / Fold change /veh SNX32 (11753110_a_at) / RFU CDHR5 (11726645_a_at) / Fold change /veh CDHR5 (11726645_a_at) / RFU RCAN1 (11760418_a_at) / Fold change /veh RCAN1 (11760418_a_at) / RFU FAM167A (11723789_a_at) / Fold change /veh FAM167A (11723789_a_at) / RFU FAM26E (11764081_at) / Fold change /veh FAM26E (11764081_at) / RFU ISYNA1 (11749810_s_at) / Fold change /veh ISYNA1 (11749810_s_at) / RFU ACY1 (11761880_at) / Fold change /veh ACY1 (11761880_at) / RFU 11764098_at / Fold change /veh 11764098_at / RFU SAMD14 (11745864_x_at) / Fold change /veh SAMD14 (11745864_x_at) / RFU NPB (11741838_a_at) / Fold change /veh NPB (11741838_a_at) / RFU TMPRSS6 (11731388_a_at) / Fold change /veh TMPRSS6 (11731388_a_at) / RFU KRTAP10-2 (11738614_at) / Fold change /veh KRTAP10-2 (11738614_at) / RFU ARHGAP8 /// PRR5-ARHGAP8 (11727945_x_at) / Fold change /veh ARHGAP8 /// PRR5-ARHGAP8 (11727945_x_at) / RFU KRTAP5-7 /// NADSYN1 (11734609_at) / Fold change /veh KRTAP5-7 /// NADSYN1 (11734609_at) / RFU RASL12 (11751679_a_at) / Fold change /veh RASL12 (11751679_a_at) / RFU CDKN2B (11736163_a_at) / Fold change /veh CDKN2B (11736163_a_at) / RFU PRF1 (11729649_at) / Fold change /veh PRF1 (11729649_at) / RFU, ZNF638 /// ZNF638-IT1 / Fold change vs veh, ZNF638 /// ZNF638-IT1 / RFU, PANK3 / Fold change vs veh, PANK3 / RFU, SH3YL1 / Fold change vs veh, SH3YL1 / RFU, ZEB2 / Fold change vs veh, ZEB2 / RFU, NRIP1 / Fold change vs veh, NRIP1 / RFU, PTTG1IP / Fold change vs veh, PTTG1IP / RFU, CAPN2 / Fold change vs veh, CAPN2 / RFU, MED14 / Fold change vs veh, MED14 / RFU, SNORA58 / Fold change vs veh, SNORA58 / RFU, C1orf63 / Fold change vs veh, C1orf63 / RFU, LRRFIP1 / Fold change vs veh, LRRFIP1 / RFU, NDUFAF7 / Fold change vs veh, NDUFAF7 / RFU, SLC12A2 / Fold change vs veh, SLC12A2 / RFU, IBTK / Fold change vs veh, IBTK / RFU, ESF1 / Fold change vs veh, ESF1 / Fold change vs veh, TMEM50B / RFU, TAOK1 / Fold change vs veh, TAOK1 / RFU, ACBD3 / Fold change vs veh, ACBD3 / RFU, TMA16 / Fold change vs veh, TMA16 / RFU, RWDD3 / Fold change vs veh, RWDD3 / RFU, BCAT1 / Fold change vs veh, BCAT1 / RFU, EDEM3 / Fold change vs veh, EDEM3 / RFU, TMEM33 / Fold change vs veh, TMEM33 / RFU, WDR75 / Fold change vs veh, WDR75 / RFU, AHCTF1 / Fold change vs veh, AHCTF1 / RFU, TFRC / Fold change vs veh, TFRC / RFU, ZDHHC17 / Fold change vs veh, ZDHHC17 / RFU, NOM1 / Fold change vs veh, NOM1 / RFU, ARL8B / Fold change vs veh, ARL8B / RFU, ZBTB11 / Fold change vs veh, ZBTB11 / RFU, TAMM41 / Fold change vs veh, TAMM41 / RFU, KIAA1704 /// LOC100996395 / Fold change vs veh, KIAA1704 /// LOC100996395 / RFU, ING1 / Fold change vs veh, ING1 / RFU, TRMT61B / Fold change vs veh, TRMT61B / RFU, FUBP3 / Fold change vs veh, FUBP3 / RFU, TP53 / Fold change vs veh, TP53 / RFU, TNKS2 / Fold change vs veh, TNKS2 / RFU, ZFP14 / Fold change vs veh, ZFP14 / RFU, ACTR2 / Fold change vs veh, ACTR2 / RFU, PPP3R1 / Fold change vs veh, PPP3R1 / RFU, PIK3R1 / Fold change vs veh, PIK3R1 / RFU, HNRNPA1 / Fold change vs veh, HNRNPA1 / RFU, RNF170 / Fold change vs veh, RNF170 / RFU, ZNF28 / Fold change vs veh, ZNF28 / RFU, RNGTT / Fold change vs veh, RNGTT / RFU, OGT / Fold change vs veh, OGT / RFU, BRD1 / Fold change vs veh, BRD1 / RFU, MARS / Fold change vs veh, MARS / RFU, ZNF655 / Fold change vs veh, ZNF655 / RFU, FAHD1 / Fold change vs veh, FAHD1 / RFU, BDP1 / Fold change vs veh, BDP1 / RFU, LRRCC1 / Fold change vs veh, LRRCC1 / RFU, ARID1A / Fold change vs veh, ARID1A / RFU, ZNF146 / Fold change vs veh, ZNF146 / RFU, ZNF330 / Fold change vs veh, ZNF330 / RFU, GPN3 / Fold change vs veh, GPN3 / RFU, C9orf123 / Fold change vs veh, C9orf123 / RFU, N4BP2L2 / Fold change vs veh, N4BP2L2 / RFU, ARFIP1 / Fold change vs veh, ARFIP1 / RFU, FAM179B / Fold change vs veh, FAM179B / RFU, BCL10 / Fold change vs veh, BCL10 / RFU, UHRF1BP1L / Fold change vs veh, UHRF1BP1L / RFU, BET1 / Fold change vs veh, BET1 / RFU, CNOT2 / Fold change vs veh, CNOT2 / RFU, ZNF268 / Fold change vs veh, ZNF268 / Fold change vs veh, ZNF507 / RFU, DGCR2 / Fold change vs veh, DGCR2 / RFU, WDSUB1 / Fold change vs veh, WDSUB1 / Fold change vs veh, HSP90B1 /// MIR3652 / RFU, ADSS / Fold change vs veh, ADSS / RFU, GK / Fold change vs veh, GK / RFU, ZNF148 / Fold change vs veh, ZNF148 / RFU, TAF9 / Fold change vs veh, TAF9 / RFU, SLC1A5 / Fold change vs veh, SLC1A5 / RFU, SLMO2 / Fold change vs veh, SLMO2 / RFU, ABCC4 / Fold change vs veh, ABCC4 / RFU, LOC101060439 /// RAP1B / Fold change vs veh, LOC101060439 /// RAP1B / RFU, RFX7 / Fold change vs veh, RFX7 / RFU, GTPBP10 / Fold change vs veh, GTPBP10 / RFU, CNEP1R1 / Fold change vs veh, CNEP1R1 / RFU, BIVM-ERCC5 /// ERCC5 / Fold change vs veh, BIVM-ERCC5 /// ERCC5 / RFU, ILF3 / Fold change vs veh, ILF3 / RFU 11762660_at / Fold change /veh 11762660_at / RFU VCAN (11757783_s_at) / Fold change /veh VCAN (11757783_s_at) / RFU DDX43 (11728927_at) / Fold change /veh DDX43 (11728927_at) / RFU KRT8 (11758188_x_at) / Fold change /veh KRT8 (11758188_x_at) / RFU NKD1 (11759106_at) / Fold change /veh NKD1 (11759106_at) / RFU SRD5A1 (11742802_a_at) / Fold change /veh SRD5A1 (11742802_a_at) / RFU TPSAB1 /// TPSB2 (11721975_s_at) / Fold change /veh TPSAB1 /// TPSB2 (11721975_s_at) / RFU GSTM3 (11746129_a_at) / Fold change /veh GSTM3 (11746129_a_at) / RFU IL23R (11737362_x_at) / Fold change /veh IL23R (11737362_x_at) / RFU TMEM51 (11727254_a_at) / Fold change /veh TMEM51 (11727254_a_at) / RFU PIWIL2 (11732686_x_at) / Fold change /veh PIWIL2 (11732686_x_at) / RFU ORM1 (11744905_x_at) / Fold change /veh ORM1 (11744905_x_at) / RFU CCDC152 (11743942_at) / Fold change /veh CCDC152 (11743942_at) / RFU ECM1 (11717891_a_at) / Fold change /veh ECM1 (11717891_a_at) / RFU IL23R (11748794_a_at) / Fold change /veh IL23R (11748794_a_at) / RFU TNFAIP8L3 (11732012_x_at) / Fold change /veh TNFAIP8L3 (11732012_x_at) / RFU MBOAT4 (11741988_at) / Fold change /veh MBOAT4 (11741988_at) / RFU 11764193_at / Fold change /veh 11764193_at / RFU TMEM53 (11763286_at) / Fold change /veh TMEM53 (11763286_at) / RFU MAGEB2 (11727129_at) / Fold change /veh MAGEB2 (11727129_at) / RFU TMEM200A (11744735_a_at) / Fold change /veh TMEM200A (11744735_a_at) / RFU CCDC152 (11751479_a_at) / Fold change /veh CCDC152 (11751479_a_at) / RFU FAM211A (11726209_a_at) / Fold change /veh FAM211A (11726209_a_at) / RFU RGS16 (11746705_a_at) / Fold change /veh RGS16 (11746705_a_at) / RFU VCAN (11755009_s_at) / Fold change /veh VCAN (11755009_s_at) / RFU RHOB (11743442_s_at) / Fold change /veh RHOB (11743442_s_at) / RFU RGS16 (11720943_a_at) / Fold change /veh RGS16 (11720943_a_at) / RFU RGS16 (11720944_at) / Fold change /veh RGS16 (11720944_at) / RFU, VPS4B / Fold change vs veh, VPS4B / RFU, CREB1 / Fold change vs veh, CREB1 / RFU, DNAJC13 / Fold change vs veh, DNAJC13 / RFU, GNAQ / Fold change vs veh, GNAQ / RFU, CDK5R1 / Fold change vs veh, CDK5R1 / RFU, ZRANB3 / Fold change vs veh, ZRANB3 / RFU, CUL4A / Fold change vs veh, CUL4A / RFU, CCNY / Fold change vs veh, CCNY / RFU, UFL1 / Fold change vs veh, UFL1 / RFU, COG3 / Fold change vs veh, COG3 / RFU, DIAPH2 / Fold change vs veh, DIAPH2 / RFU, SKA2 / Fold change vs veh, SKA2 / RFU, AFF3 / Fold change vs veh, AFF3 / RFU, LMF1 / Fold change vs veh, LMF1 / RFU, IPO11 / Fold change vs veh, IPO11 / RFU, DFFB / Fold change vs veh, DFFB / RFU, FOXP1 / Fold change vs veh, FOXP1 / RFU, CARD8 / Fold change vs veh, CARD8 / RFU, STRN3 / Fold change vs veh, STRN3 / RFU, ADK / Fold change vs veh, ADK / RFU, RASSF2 / Fold change vs veh, RASSF2 / RFU, WIPF1 / Fold change vs veh, WIPF1 / RFU, LARP1B / Fold change vs veh, LARP1B / RFU, RASA1 / Fold change vs veh, RASA1 / RFU, RB1 / Fold change vs veh, RB1 / RFU, PPFIA1 / Fold change vs veh, PPFIA1 / RFU, MAT2A / Fold change vs veh, MAT2A / RFU, CCT5 / Fold change vs veh, CCT5 / RFU, WDR92 / Fold change vs veh, WDR92 / RFU, CUX1 / Fold change vs veh, CUX1 / RFU, TTC7A / Fold change vs veh, TTC7A / RFU, TMEM135 / Fold change vs veh, TMEM135 / RFU, DEPTOR / Fold change vs veh, DEPTOR / RFU, CPM / Fold change vs veh, CPM / RFU, DNAJB6 / Fold change vs veh, DNAJB6 / RFU, CACNA2D3 / Fold change vs veh, CACNA2D3 / RFU, DTX4 / Fold change vs veh, DTX4 / RFU, TFCP2 / Fold change vs veh, TFCP2 / RFU, GMCL1 /// GMCL1P1 / Fold change vs veh, GMCL1 /// GMCL1P1 / RFU, AEBP2 / Fold change vs veh, AEBP2 / RFU, SNHG1 /// SNORD22 /// SNORD25 /// SNORD26 /// SNORD27 /// SNORD28 /// SNORD29 /// SNORD31 / Fold change vs veh, SNHG1 /// SNORD22 /// SNORD25 /// SNORD26 /// SNORD27 /// SNORD28 /// SNORD29 /// SNORD31 / Fold change (Aza/veh), C12orf56 (ProbeSet 11735607_a_at) / Fold change (ACY-1035/veh), C12orf56 (ProbeSet 11735607_a_at) / Fold change (Aza/veh), FGFR1OP (ProbeSet 11751329_s_at) / Fold change (ACY-1035/veh), FGFR1OP (ProbeSet 11751329_s_at) / Fold change (Aza/veh), VPS36 (ProbeSet 11739960_a_at) / Fold change (ACY-1035/veh), VPS36 (ProbeSet 11739960_a_at) / RFU SYPL1 (11715823_x_at) / Fold change /veh SYPL1 (11715823_x_at) / RFU IGFBP7 (11715501_s_at) / Fold change /veh IGFBP7 (11715501_s_at) / RFU REEP3 (11722064_at) / Fold change /veh REEP3 (11722064_at) / RFU IGLL1 (11728026_x_at) / Fold change /veh IGLL1 (11728026_x_at): dose or concentration left out as unconfirmed
Settings: MV-4-11 cells, 48 hours

SMILES: Nc1ccc(-c2cccs2)cc1NC(=O)c1ccc2c(c1)cc(C1CC1)n2CCN1CCOCC1 [ACY-1035]
- RFU KIR2DL2 /// KIR2DL4 /// KIR2DL5A /// KIR2DL5B /// KIR2DS1 /// KIR2DS2 /// KIR2DS3 /// KIR2DS4 /// KIR3DL3 /// KIR3DL3 /// KIR3DS1 (11738374_at): 11.07 RFU
